Data as given in publication PMC9794833, “Ligand recognition and activation of neuromedin U receptor 2” (Nature Communications, 2022).
pEC50: −log10 of the molar value. Where “and” joins values, the source holds several entries; their conditions need not be identical. Equal values may be shown once. Read-outs that look alike come from different tables or passages of the source. Where no end group is shown, it is not given here.

Columns and labels:
Type in all cases: cell-based
NMU2 F177C = target: T1, NMU2 F177C (Homo sapiens, UniProt Q9GZQ4, F177C); assay: IP accumulation assay, NMU2 mutant F177C; details: IP accumulation
T1 construct: HA signal peptide (N); expressed in transfected cells; host or cells: HEK 293F, transient transfection, PTT5 vector
Experimental: (§1) NMU2 constructs of WT and mutants were constructed into PTT5 vector (Invitrogen), as mentioned above. HEK 293F cells were transiently transfected with WT or mutants with total of 2000 ng plasmid DNA using transfection reagent (PEI MAX 2000, Polysciences) and cultivated at 37 °C with 5% CO2. Cells were collected after 48-h transfection. IP accumulation was tested by IP-One Gq assay kit (Cisbio Bioassays, 62IPAPEJ) following the instruction manual. In general, cells were resuspended with 1× HBSS buffer containing 20 mM LiCl (stimulation buffer) and seeded into the white 384-well microplates (Proxi Plate^TM-384 Plus, PerkinElmer) with a density of 20,000 per well. Cells were preincubated with 10^−5 M R-PSOP (provided by Boehringer Ingelheim company, Germany) and gradient concentration from 10^−4 to 10^−11 M of NMU-25 or gradient concentration 10^−4 to 10^−11 M of NMU-25 alone in stimulation buffer at 37 °C for 90 min. The cryptate-labeled anti-IP1 monoclonal antibody and d2-labeled IP1 were diluted with lysis & detection buffer (1:20) and added to each well by 3 μl, respectively. The plates were incubated at room temperature for 60 minutes and then read in a Synerg^TM H1 microplate reader (BioTek) with excitation at 330 nm and emission at 620 and 665 nm. The IP1 production was calculated by a standard dose–response curve and analyzed by GraphPad Prism 8.0.

NMU2 N306Q = target: T2, NMU2 N306Q (Homo sapiens, UniProt Q9GZQ4, N306Q); assay: TRUPATH assay, NMU2 mutant N306Q
T2 construct: HA signal peptide (N); expressed in transfected cells; host or cells: HEK 293F
Experimental: (§2) The plasmids of Gαi1, Gβ3, and Gγ9 used for the TRUPATH assay were purchased from Addgene (TRUPATH Kit, #1000000163). NMU2 constructs of WT and mutants were constructed into a PTT5 vector (Invitrogen) with an N-terminal HA signal peptide followed by a Flag tag. HEK 293F cells were transiently transfected with WT or mutants of NMU2, Gαi1, Gβ3, and Gγ9 at an […] ratio of 4:1:1:1 with a total of 3500 ng plasmid DNA using a transfection reagent (PEI MAX 2000, Polysciences) and cultivated at 37 °C with 5 % CO2. Cells were collected after 48-h transfection. The expression level of the receptor was measured by incubating 10 μl cells with 15 μl TBS buffer supplemented with 4% bovine serum albumin, 20% (v/v) viability staining solution7-AAD (Invitrogen, Cat#00-6993-50), and ANTI-FLAG M2-FITC antibody (Sigma, F4049; 1:100 diluted by TBS) at 4 °C for 20 min. After incubation, 175 μl TBS buffer was added, and the fluorescence signal on the cell surface was detected by an FCM (flow cytometry) reader (Millipore). The cells were diluted with 1× HBSS (Hank’s balanced salt solution) balanced buffer supplemented with 25 mM HEPES, pH 7.4, and seeded onto the 96-well opaque cell culture plates (Beyotime) at a density of 18,000 cells per well by 60 μl. Freshly prepared 50 μM coelenterazine 400a (Nanolight Technologies) was added into the well by 10 μl. After a 5 min equilibration time in the darkness, plates were then read in a Synerg^TM H1 microplate reader (BioTek) with excitation at 395 nm and emission at 410 and 515 nm by serially three times. Then, 30 μl of 3.3× agonists were added into the wells with a gradient final concentration from 10^−4–10^−13 M. Plates were read immediately again by serially five times. Data were processed and analyzed following the method in the literature by using GraphPad Prism 8.0.

NMU2 F131L = target: T3, NMU2 F131L (Homo sapiens, UniProt Q9GZQ4, F131L); assay: IP accumulation assay, NMU2 mutant F131L; details: IP accumulation
T3 construct: HA signal peptide (N); expressed in transfected cells; host or cells: HEK 293F, transient transfection, PTT5 vector
Experimental: as §1

NMU2 F126A = target: T4, NMU2 F126A (Homo sapiens, UniProt Q9GZQ4, F126A); assay: TRUPATH assay, NMU2 mutant F126A
T4 construct: HA signal peptide (N); expressed in transfected cells; host or cells: HEK 293F
Experimental: as §2

NMU2 F305A = target: T5, NMU2 F305A (Homo sapiens, UniProt Q9GZQ4, F305A); assay: TRUPATH assay, NMU2 mutant F305A
T5 construct: HA signal peptide (N); expressed in transfected cells; host or cells: HEK 293F
Experimental: as §2

NMU2 E105A = target: T6, NMU2 E105A (Homo sapiens, UniProt Q9GZQ4, E105A); assay: TRUPATH assay, NMU2 mutant E105A; details: for pEC50: read-out: EC50
T6 construct: HA signal peptide (N); expressed in transfected cells; host or cells: HEK 293F
Experimental: as §2

NMU2 F224A = target: T7, NMU2 F224A (Homo sapiens, UniProt Q9GZQ4, F224A); assay: IP accumulation assay, NMU2 mutant F224A; details: IP accumulation
T7 construct: HA signal peptide (N); expressed in transfected cells; host or cells: HEK 293F, transient transfection, PTT5 vector
Experimental: as §1

NMU2 E127A = target: T8, NMU2 E127A (Homo sapiens, UniProt Q9GZQ4, E127A); assay: TRUPATH assay, NMU2 mutant E127A
T8 construct: HA signal peptide (N); expressed in transfected cells; host or cells: HEK 293F
Experimental: as §2, with “The cells were diluted with 1× HBSS (Hank’s balanced salt solution) balanced buffer supplemented with 25 mM HEPES, pH 7.4, and seeded onto the 96-well opaque cell culture plates (Beyotime) at a density of 18,000 cells per well by 60 μl. Freshly prepared 50 μM coelenterazine 400a (Nanolight Technologies) was added into the well by 10 μl.” left out, “Data were processed and analyzed following the method in the literature by using GraphPad Prism 8.0.” left out

NMU2 E102A = target: T9, NMU2 E102A (Homo sapiens, UniProt Q9GZQ4, E102A); assay: IP accumulation assay, NMU2 mutant E102A; details: IP accumulation
T9 construct: HA signal peptide (N); expressed in transfected cells; host or cells: HEK 293F
Experimental: as §1

NMU2 H285A = target: T10, NMU2 H285A (Homo sapiens, UniProt Q9GZQ4, H285A); assay: IP accumulation assay, NMU2 mutant H285A; details: IP accumulation
T10 construct: HA signal peptide (N); expressed in transfected cells; host or cells: HEK 293F, transient transfection, PTT5 vector
Experimental: as §1

NMU2 R288A = target: T11, NMU2 R288A (Homo sapiens, UniProt Q9GZQ4, R288A); assay: IP accumulation assay, NMU2 mutant R288A
T11 construct: HA signal peptide (N); expressed in transfected cells; host or cells: HEK 293F
Experimental: as §1

NMU2 H43E = target: T12, NMU2 H43E (Homo sapiens, UniProt Q9GZQ4, H43E); assay: TRUPATH assay, NMU2 mutant H43E; details: H43E
T12 construct: HA signal peptide (N); expressed in transfected cells; host or cells: HEK 293F
Experimental: as §2

[1] = read-out: pEC50±SEM, NmU-25 alone (converted)
[2] = read-out: pEC50 mean±SEM (converted)

T8 sequence (Q9GZQ4 whole entry E127A): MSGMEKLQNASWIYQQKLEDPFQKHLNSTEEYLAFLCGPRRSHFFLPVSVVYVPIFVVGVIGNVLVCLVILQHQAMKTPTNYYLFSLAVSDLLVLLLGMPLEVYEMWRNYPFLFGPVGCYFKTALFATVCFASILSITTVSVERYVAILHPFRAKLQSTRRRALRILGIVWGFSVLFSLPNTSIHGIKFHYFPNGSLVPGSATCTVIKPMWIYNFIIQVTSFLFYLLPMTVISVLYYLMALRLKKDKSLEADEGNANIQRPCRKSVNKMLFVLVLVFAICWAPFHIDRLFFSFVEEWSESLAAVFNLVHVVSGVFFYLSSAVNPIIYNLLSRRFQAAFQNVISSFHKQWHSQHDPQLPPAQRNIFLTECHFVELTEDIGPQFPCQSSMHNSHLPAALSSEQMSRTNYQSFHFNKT
T5 sequence (Q9GZQ4 whole entry F305A): as the sequence (Q9GZQ4 whole entry E127A) above, with A127E, F305A counted along it
T12 sequence (Q9GZQ4 whole entry H43E): as the sequence (Q9GZQ4 whole entry E127A) above, with H43E, A127E counted along it
T6 sequence (Q9GZQ4 whole entry E105A): as the sequence (Q9GZQ4 whole entry E127A) above, with E105A, A127E counted along it
T4 sequence (Q9GZQ4 whole entry F126A): as the sequence (Q9GZQ4 whole entry E127A) above, with F126A, A127E counted along it
T2 sequence (Q9GZQ4 whole entry N306Q): as the sequence (Q9GZQ4 whole entry E127A) above, with A127E, N306Q counted along it
T9 sequence (Q9GZQ4 whole entry E102A): as the sequence (Q9GZQ4 whole entry E127A) above, with E102A, A127E counted along it
T3 sequence (Q9GZQ4 whole entry F131L): as the sequence (Q9GZQ4 whole entry E127A) above, with A127E, F131L counted along it
T10 sequence (Q9GZQ4 whole entry H285A): as the sequence (Q9GZQ4 whole entry E127A) above, with A127E, H285A counted along it
T1 sequence (Q9GZQ4 whole entry F177C): as the sequence (Q9GZQ4 whole entry E127A) above, with A127E, F177C counted along it
T7 sequence (Q9GZQ4 whole entry F224A): as the sequence (Q9GZQ4 whole entry E127A) above, with A127E, F224A counted along it
T11 sequence (Q9GZQ4 whole entry R288A): as the sequence (Q9GZQ4 whole entry E127A) above, with A127E, R288A counted along it

FRVDEEFQSPFASQSRGYFLFRPRN-NH2 [NmU-25]
pEC50 (NMU2 F177C; read-out: EC50, NmU-25 alone): 8.15 | EC50 (NMU2 F177C; [1]): 7.08 nM | EC50 ratio EC50(mutant)/EC50(WT) (NMU2 N306Q): 14 | Span (window between Emax and minimal agonist response) (NMU2 N306Q): 101±10 % of WT | G protein activation (TRUPATH), dose-response point (NMU2 N306Q; Log [agonist] M -4): 89.9582 and 52.9953 and 88.5352 | G protein activation (TRUPATH), dose-response point (NMU2 N306Q; Log [agonist] M -5): 95.8006 and 91.3095 and 87.6434 | ΔpEC50 (from WT) (NMU2 N306Q; individual experiments): -1.093 and -0.9304 and -1.223 | pEC50 (NMU2 N306Q; read-out: EC50): 6.33 | EC50 (NMU2 N306Q; [2]): 468 nM | pEC50 (NMU2 F131L; read-out: EC50, NmU-25 alone): 7.96 | EC50 (NMU2 F131L; [1]): 10.7 nM | EC50 ratio EC50(mutant)/EC50(WT) (NMU2 F126A): 18 | Span (window between Emax and minimal agonist response) (NMU2 F126A): 27±10 % of WT | G protein activation (TRUPATH), dose-response point (NMU2 F126A; Log [agonist] M -4): 26.6728 and 20.7775 | ΔpEC50 (from WT) (NMU2 F126A; individual experiments): -2.148 and -1.125 and -1.6853 | pEC50 (NMU2 F126A; read-out: EC50): 6.20 | EC50 (NMU2 F126A; [2]): 631 nM | EC50 ratio EC50(mutant)/EC50(WT) (NMU2 F305A): 77 | Span (window between Emax and minimal agonist response) (NMU2 F305A): 95±11 % of WT | G protein activation (TRUPATH), dose-response point (NMU2 F305A; Log [agonist] M -4): 46.0579 and 58.1697 and 76.8594 and 61.8818 | ΔpEC50 (from WT) (NMU2 F305A; individual experiments): -2.165 and -2.457 and -1.8628 and -2.734 | Emax (NMU2 F305A; peer review file): 83% | potency reduction (NMU2 F305A; peer review file): 33 fold | pEC50 (NMU2 F305A; read-out: EC50): 5.58 | EC50 (NMU2 F305A; [2]): 2630 nM | Span (window between Emax and minimal agonist response) (NMU2 E105A; E105A): 65±13 % of WT | Emax (NMU2 E105A; E105A vs WT, TRUPATH, read-out: decrease of Emax): 50% | G protein activation (TRUPATH), dose-response point (NMU2 E105A; E105A, Log [agonist] M -5): 55.6494 and 84.0025 and 53.5618 and 51.5031 | pEC50 (NMU2 E105A; E105A, earlier manuscript version quoted in peer review file): 5.73 | reduction of agonist potency (NMU2 E105A; E105A, earlier manuscript version, peer review file): about 50 fold | ΔpEC50 (from WT) (NMU2 E105A; E105A, individual experiments): -1.22 and -1.57 and -1.279 and -1.924 | pEC50 (NMU2 E105A; E105A): 5.60 | EC50 (NMU2 E105A; E105A, read-out: pEC50 mean±SEM (converted)): 2510 nM | pEC50 (NMU2 F224A; read-out: EC50, NmU-25 alone): 7.34 | EC50 (NMU2 F224A; [1]): 45.7 nM | G protein activation (TRUPATH), dose-response point (NMU2 E127A; Log [agonist] M -4): 45.81 and 24.8732 | potency (in words) (NMU2 E127A; TRUPATH): complete loss of potency | pEC50 (NMU2 E102A; read-out: EC50, NmU-25 alone): 5.77 | EC50 (NMU2 E102A; [1]): 1700 nM | pEC50 (NMU2 H285A; read-out: EC50, NmU-25 alone): 6.67 | EC50 (NMU2 H285A; [1]): 214 nM | NmU-25-induced IP accumulation (in words) (NMU2 R288A): totally eliminated | EC50 ratio EC50(mutant)/EC50(WT) (NMU2 H43E): 11 | Span (window between Emax and minimal agonist response) (NMU2 H43E): 135±8 % of WT | G protein activation (TRUPATH), dose-response point (NMU2 H43E; Log [agonist] M -4): 115.78 and 106.024 and 146.553 and 103.896 | G protein activation (TRUPATH), dose-response point (NMU2 H43E; Log [agonist] M -6): 81.3432 and 53.8154 and 89.1078 and 81.5652 | ΔpEC50 (from WT) (NMU2 H43E; individual experiments): -0.8963 and -0.6313 and -0.3476 and -0.5879 | pEC50 (NMU2 H43E; read-out: EC50): 6.44 | EC50 (NMU2 H43E; [2]): 363 nM
